Experimental data reported in BigSolDB 2.1.

O=[N+]([O-])c1cc[nH]n1
solubility (mole fraction)
Settings | 283.15 K | 288.15 K | 293.15 K | 298.15 K | 303.15 K | 308.15 K | 313.15 K | 318.15 K | 323.15 K
in 1,2-dichlorobenzene | 0.0009 | 0.00242 | 0.00425 | 0.00666 | 0.00908 | 0.0113 | 0.0139 | 0.0166 | 0.0197
in 2-ethylhexyl acetate | 0.00998 | 0.0107 | 0.0115 | 0.0122 | 0.0134 | 0.0146 | 0.0166 | – | –
in anisole | 0.00502 | 0.00551 | 0.00623 | 0.00688 | 0.0078 | 0.0092 | 0.0112 | 0.0132 | 0.0156
in benzonitrile | 0.0197 | 0.0223 | 0.0253 | 0.0291 | 0.0342 | 0.0396 | 0.0486 | 0.0631 | 0.0828
in benzyl alcohol | 0.0263 | 0.0296 | 0.0333 | 0.0391 | 0.0452 | 0.0508 | 0.0581 | 0.0672 | 0.0753
in mesitylene | 0.00129 | 0.00162 | 0.002 | 0.00246 | 0.00288 | 0.00335 | 0.00401 | 0.00476 | 0.00578
in n-octanol | 0.0127 | 0.0144 | 0.0164 | 0.0192 | 0.0232 | 0.0272 | 0.0315 | 0.0362 | 0.0429
